Entries after “also recorded” stand apart in the source; their conditions may differ.
Tests used:
cancer cells = assay: MTT cell viability assay; type: cell-based
Protocol: FIG. 8 is a bar graph showing cell viability (0%-150%) for cell groups treated with each of DMSO (control), OSI-027, DEACM, and cOSI-027, each at 50 μM, respectively, each with (+) or without (−) exposure to light. Light irradiation was done with a 420 nm LED (70 mW/cm^2, 3 min).
To investigate the anti-cancer effect of this photo-activatable prodrug system, MTT assay was further conducted to analyze the cell viability after the treatment with different formulations.

mTORC2 signaling pathway = assay: Western blot of mTORC2 signaling (Akt phosphorylation); type: cell-based; conditions: compared with the control group, with or without light (420 nm, 70 mW/cm^2, 3 min)
Protocol: (§1) FIG. 5 is a photomicrograph showing bands corresponding to each of p-S6K, S6K, p-Akt, Akt, mTOR, and GAPDH, respectively, from cells treated with each of DMSO (control), OSI-027, DEACM, and cOSI-027, respectively, each with (+) or without (−) exposure to light (420 nm, 70 mW/cm^2, 3 min).
(§2) To further investigate the mTOR inhibitory effect of OSI-027 and cOSI-027 with or without light irradiation, western blot was performed to analyze the protein expression level of mTOR pathway (FIG. 5). S6K and Akt phosphorylation ratios were chosen as markers for mTORC1 and mTORC2 signaling pathway investigation, respectively.

autophagy activity = assay: Western blot of autophagy level (LC3-II/LC3-I ratio); type: cell-based
Description: FIGS. 6A-6B show results of Western blotting and quantification of autophagy. FIG. 6A is a photomicrograph showing bands corresponding to each of LC3-I, LC3-II, and GADPH in cells treated with each of DMSO (control), OSI-027, DEACM, and cOSI-027, respectively, each with (+) or without (−) exposure to light. FIG. 6B is a graph showing normalized LC3-II/LC3-I ratio (0-15) for each of the bands in FIG. 6A including DMSO, OSI-027, DEACM, and cOSI-027, each with or without exposure to light, respectively. Light irradiation was done with a 420 nm LED (70 mW/cm^2, 3 min).
mTORC1 inhibition leads to higher autophagy activity, resulting in enhanced protein degradation ability in the lysosome. Therefore, whether the photochemical-controlled mTOR inhibition strategy can be used for manipulating autophagy activity was investigated. Autophagy level was characterized by the LC3-II/LC3-I ratio through western blot analysis (FIGS. 6A-6B). 24 h after the drug treatment, OSI-027 increased the LC3-II/LC-I ratio compared with the control group, indicating a higher autophagy activity. And cOSI-027 treatment led to a higher LC3-II/LC3-I ratio after light irradiation, compared with non-irradiation group.

[1] = Photocleavage of cOSI-027 by HPLC, 420 nm light; type: physicochemical; conditions: 70 mW/cm^2
Protocol: FIGS. 4A and 4B show the photocleavage of cOSI-027 by HPLC and quantitative analysis. FIG. 4A is a line graph showing the photocleavage of cOSI-027 by HPLC analysis, with 0-1000 mA.U. at the wavelength (342 nm) for cOSI-027 and for OSI-027 when exposed to 420 nm light at 70 mW/cm^2 for 0, 1, 3, 5, 7, 10, or 15 min, respectively. FIG. 4B is a graph showing remaining cOSI-027 (0-400 μM) and released OSI-027 (0-300 μM) over light irradiation time (0, 1, 3, 5, 7, 10, or 15 min, respectively).
The optochemcial characteristics of the caged OSI-027 prodrug were analyzed by spectroscopy (FIGS. 3A-3C). The absorption peaks of the prodrug were located at 300 nm and 380 nm. The emission peak was located at 460 nm under 380 nm excitation. […] To further verify the photocleavage reaction after light irradiation, high performance liquid chromatography (HPLC) was utilized to monitor the cleavage and release of OSI-027 after light irradiation.

mTORC1 signaling pathway = assay: Western blot of mTORC1 signaling (S6K phosphorylation); type: cell-based; conditions: compared with the control group, with or without light (420 nm, 70 mW/cm^2, 3 min)
Protocol: as §1, §2

[2] = system: mCherry-GFP-LC3 transfected HeLa cell line; assay: CLSM of LC3 puncta in mCherry-GFP-LC3 cells; type: cell-based
Description: FIGS. 7A-7B are photomicrographs showing the presence of mCherry and/or GFP following exposure to different formulations and respective quantitative analysis. FIG. 7A is a panel of photomicrographs showing the presence of mCherry and/or GFP in cells treated with each of DMSO, OSI-027, DEACM, and cOSI-027, each with light irradiation or no light, respectively. FIG. 7B is a graph showing number of LC3 puncta per cell (0-300) for each of the groups in FIG. 7A. Light irradiation was done with a 420 nm LED (70 mW/cm^2, 3 min).
To further validate the photoactivated effect on autophagy, a mCherry-GFP-LC3 transfected HeLa cell line was established to accurately monitor the LC3 expression and subcellular localization.

[3] = cited from earlier work

Compound: CCN(CC)c1ccc2c(COC(=O)C3CCC(c4nc(-c5cc6cccc(OC)c6[nH]5)c5c(N)ncnn45)CC3)cc(=O)oc2c1 (stereo not drawn) [cOSI-027]
- cell viability (cancer cells; 50 μM, after light irradiation (420 nm LED, 70 mW/cm^2, 3 min)): significantly lower
- phosphorylation of Akt (marker for mTORC2 signaling) (mTORC2 signaling pathway): only exhibited significant inhibitory effect on mTORC1 and mTORC2 pathway after light irradiation
- LC3-II/LC3-I ratio (autophagy activity; after light irradiation (420 nm LED, 70 mW/cm^2, 3 min), compared with non-irradiation group): higher
- release of OSI-027 (HPLC) ([1]; after 1 min of 420 nm light irradiation): generation of OSI-027 was characterized by the new peak
- photocleavage (HPLC) ([1]; after 3 min irradiation, 420 nm): almost completed
- phosphorylation of S6K (marker for mTORC1 signaling) (mTORC1 signaling pathway): only exhibited significant inhibitory effect on mTORC1 and mTORC2 pathway after light irradiation
- puncta number ([2]; after light irradiation (420 nm LED, 70 mW/cm^2, 3 min)): increased

Compound: COc1cccc2cc(-c3nc([C@H]4CC[C@H](C(=O)O)CC4)n4ncnc(N)c34)[nH]c12 [OSI-027, Trans-4-[4-amino-5-(7-methoxy-1H-indol-2-yl)imidazo[5,1-f][1,2,4]triazin-7-yl]-cyclohexanecarboxylic acid]
- viability at 50 µM (cancer cells; after 48 h incubation): ~30%
- phosphorylation of Akt (marker for mTORC2 signaling) (mTORC2 signaling pathway): decreased
- LC3-II/LC3-I ratio (autophagy activity; 24 h after the drug treatment, compared with the control group): increased
- patients with stable disease ([3]; 8-12-week follow-up assessment): 29.7 % patients
- patients free of progression for more than 24 weeks ([3]; of the patients with stable disease): six
- toxicity and adverse effects ([3]; phase I clinical trial observations): induced dose-limiting toxicities (DLT) and adverse effects; also recorded: induced fatigue, gastrointestinal disorders, decreased cardiac function and cardiomyopathy, bone pain, and hyperglycemia; also recorded: frequently led to renal dysfunction
- phosphorylation of S6K (marker for mTORC1 signaling) (mTORC1 signaling pathway): decreased
- number and area of red and yellow puncta in the cells ([2]; compared with the control group): significantly increase
